Experimental data taken from US8586638B2, “Parakeratosis inhibitor and skin preparation for external use” (priority 2003, dated 2013).
Where a SMILES comes first, the peptide text is derived from it. [ ]: non-standard residue; d: D form. Sar = CNCC(=O)O

Key:
[1] = test system: parakeratosis and skin roughness caused by oleic acid on the back of hairless mice; experiment: Parakeratosis inhibition effect test: oleic acid applied to the back of hairless mice, visual skin roughness and parakeratosis level; assay type: in vivo, hairless mice (HR-1); parameters: key to Evaluation Visual (mean of 4 mice), skin roughness: 0.0 = no roughness, 2.0 = control application; 0.25 steps; conditions: for Evaluation Parakeratosis (mean of 4 mice): control 2.0; for Evaluation Visual (mean of 4 mice), skin roughness: score 0.0 no roughness, 2.0 control; for effect of inhibiting parakeratosis (conclusion from Table 4) / effect of inhibiting parakeratosis (conclusion from Table 1): hairless mice, oleic acid; for effect of inhibiting parakeratosis (conclusion from Table 4): fourth embodiment; for effect of inhibiting parakeratosis (conclusion from Table 1): first embodiment
Experimental: A 3 weight % water solution (including 30 weight % ethanol) was prepared as the evaluation specimen of the glycine derivatives in accordance with the invention 1. The pH was regulated to the range between 7.0 to 7.5, by using hydrochloric acid and sodium hydroxide. When the solubility was low, the solution was adjusted accordingly.
100 microliters of 10 weight % oleic acid (solvent: ethanol) was applied to the back of hairless mice (HR-1, Hoshino laboratory animals). Thereafter, 100 microliters of sample solution was applied (glycine derivatives in accordance with said invention 1) at each time. This procedure was repeated for 3 days. The day after the application, the skin condition of the backs was observed by using a CCD camera to evaluate the skin roughness (stratified ablation of the skin surface stratum corneum and red spots). The skin condition was evaluated visually, with scoring the skin condition of control application to 2.0 and the skin condition of no roughness to 0.0, in a 0.25 point step in response to the skin condition. At the same time, the skin surface stratum corneum of the back of hairless mice was peeled off by using a tape for staining the nucleus with haematoxylin to observe the degrees of parakeratosis (parakeratosis level) and evaluate in 0.25 step in the range from 1.0 to 3.0. The higher evaluation points indicates the larger number of parakeratotic corneocytes count, i.e., severer parakeratosis.
The samples to be evaluated of the glycine derivatives and the salts thereof as well as the aminosulfuric acid derivatives and the salts thereof in accordance with the invention 2 were prepared mainly 3 weight % solution (including 30 weight % ethanol, excluding Hydantoic acid and ACES which include 20 weight % ethanol). pH was regulated by using hydrochloric acid or sodium hydroxide to be 7.0 to 7.5. When the solubility was low, then the solution was prepared accordingly.
100 microliters of 10 weight % oleic acid (solvent: ethanol) was applied to the back of Hairless mice (HR-1, Hoshino laboratory animals) Thereafter, 100 microliters of sample solution (glycine derivatives in accordance with the invention 2) was applied thereon at each time. This procedure was repeated for 3 days. The day after the application, the skin condition of the backs was observed by using a CCD camera to evaluate the skin roughness (stratified ablation of the skin surface stratum corneum and red spots). The skin condition was evaluated visually, with scoring the skin condition of control application to 2.0 and the skin condition of no roughness to 0.0, in a 0.25 point step in response to the skin condition. At the same time, the skin surface stratum corneum of the back of hairless mice was peeled off by using a tape for staining the nucleus with haematoxylin to observe the degrees of parakeratosis and evaluate in 0.25 step in the range from 1.0 to 3.0. The higher evaluation points indicates the larger number of parakeratotic corneocytes count, i.e., severer parakeratosis.

[2] = test system: pores on the cheek of healthy male subjects; experiment: Effect of shrinking human pores: replica evaluation of cheek pores; assay type: in vivo; conditions: for Replica Evaluation (mean of n = 5), difference of pore size score before/after application: twice a day for a month, cheek; for effect of pore-shrinking (conclusion from Table 5) / pore-shrinking effect (conclusion from Table 2): human cheek; for effect of pore-shrinking (conclusion from Table 5): fifth embodiment; for pore-shrinking effect (conclusion from Table 2): second embodiment
Experimental: An experiment of application of sample twice a day for a month on the cheek of healthy male subjects, was conducted with each group consisting of 5 individuals. 3 weight % solution of the glycine derivatives in accordance with the invention 1 (including 15 weight % of ethanol) was prepared. pH was regulated to the range between 7.0 and 7.5, by using hydrochloric acid and/or sodium hydroxide. Control was 15 weight % ethanol solution. Said 3 weight % solution was applied to one side and said control solution was applied to the other side.
Replicas were prepared prior to and after the application to observe the change of form of pores in the same spot under a three-dimensional laser scanning microscope. The size of pores was evaluated visually 13 steps from 1 to 13 (larger number indicates larger pore size), and the difference between the resulted evaluations before/after the application experiment was then calculated to study the effectiveness of each specimen.
An experiment of application of sample twice a day for a month on the cheek of healthy male subjects, was conducted with each group consisting of 5 individuals. 3 weight % solution of the glycine derivatives and the salts thereof as well as the aminosulfuric acid derivatives and the salts thereof in accordance with the invention 2 (including 15 weight % of ethanol), 2 weight % solution of ACES (including 15 weight % of ethanol), 3 weight % solution of CAPS (including 15 weight % of ethanol), and 3 weight % solution of CAPSO (including 15 weight % of ethanol) were prepared. pH was regulated to the range between 7.0 and 7.5, by using hydrochloric acid and/or sodium hydroxide. 15 weight % ethanol solution was used as control. Said sample solutions was applied to one side, and said control solution was applied to the other side.

[3] = test system: skin roughness caused by oleic acid on the back of hairless mice; experiment: Inhibitory effect on skin roughness by the application of oleic acid (TEWL value); assay type: in vivo, hairless mice (HR-1); parameters: ΔTEWL: unit not given here; conditions: for decrease of delta-TEWL value as compared to the control solution (conclusion from Table 6): hairless mice, oleic acid, seventh embodiment; for ΔTEWL: after 10 weight % oleic acid, 3 days, four mice per group, control 12.0
Experimental: To study the inhibitory effect on the skin roughness by the application of oleic acid by the glycine derivatives and the salts thereof as well as the aminosulfuric acid derivatives and the salts thereof in accordance with the invention 2, the […] (TEWL value) before and after the application was measured to compare the difference therebetween with the value of control (control solution) in order to determine the effect. The preparation of samples and the application procedure were in accordance with the embodiment 4. The TEWL value was measured by means of TEWA meter TM210 (Courage+Khazaka Inc.).
100 microliters of 10 weight % oleic acid (solvent: ethanol) was applied to the back of hairless mice (HR-1, four in each group). Thereafter, 100 microliters of sample solutions (glycine derivatives and the salts thereof as well as the aminosulfuric acid derivatives and the salts thereof) in accordance with the invention 2 were applied at each time. This procedure was repeated for 3 days. The day after the application, TEWL value of the back of mice was measured and the values were averaged. The larger delta-TEWL value indicates severer aggravation of skin roughness.

[4] = Table 4, sample 3 weight % in aqueous 30 weight % ethanol (hydantoic acid: 20 weight % ethanol), range 1.0 to 3.0, higher = severer
[5] = Table 4, sample 3 weight % in aqueous 30 weight % ethanol (hydantoic acid: 20 weight % ethanol)
[6] = Table 5, 3.0 weight % solution (15 weight % ethanol), control 0.3
[7] = sample 3 weight %, larger = severer roughness
[8] = sample 3 weight % in aqueous 30 weight % ethanol, after 10 weight % oleic acid, 3 days, range 1.0 to 3.0, higher = severer
[9] = sample 3 weight % in aqueous 30 weight % ethanol, after 10 weight % oleic acid, 3 days
[10] = 3 weight % solution (15 weight % ethanol), 13 steps, larger = larger pore, control 0.2

## O=S(=O)(O)CCCNC1CCCCC1 [CAPS, 3-(cyclohexyl-amino)propane sulfonic acid]
[1]; [4]
  Evaluation Parakeratosis (mean of 4 mice): 1.2
[1]; [5]
  Evaluation Visual (mean of 4 mice), skin roughness: 1.3
[1]
  effect of inhibiting parakeratosis (conclusion from Table 4): have the effect of inhibiting parakeratosis
[2]; [6]
  Replica Evaluation (mean of n = 5), difference of pore size score before/after application: −1.4
[2]
  effect of pore-shrinking (conclusion from Table 5): demonstrated the effect of pore-shrinking
[3]
  decrease of delta-TEWL value as compared to the control solution (conclusion from Table 6): significant decrease of delta-TEWL value
[3]; [7]
  ΔTEWL: 8.1

## O=C(O)CNC(=O)Cc1ccccc1 [phenaceturic acid]
[1]
  effect of inhibiting parakeratosis (conclusion from Table 1): have the effect of inhibiting parakeratosis
[1]; [8]
  Evaluation Parakeratosis (mean of 4 mice): 1.1
[1]; [9]
  Evaluation Visual (mean of 4 mice), skin roughness: 1.2
[2]; [10]
  Replica Evaluation (mean of n = 5), difference of pore size score before/after application: −0.8
[2]
  pore-shrinking effect (conclusion from Table 2): pore-shrinking effect was observed

## NC(=O)CNCCS(=O)(=O)O [ACES, N-(2-acetamide)-2-aminoethanesulfonic acid]
[1]; Table 4, sample 1 weight % in aqueous 30 weight % ethanol (ACES: 20 weight % ethanol), range 1.0 to 3.0
  Evaluation Parakeratosis (mean of 4 mice): 1.2
[1]; Table 4, sample 1 weight % in aqueous 30 weight % ethanol (ACES: 20 weight % ethanol)
  Evaluation Visual (mean of 4 mice), skin roughness: 1.4
[1]
  effect of inhibiting parakeratosis (conclusion from Table 4): have the effect of inhibiting parakeratosis
[2]; Table 5, 2.0 weight % solution (15 weight % ethanol), control 0.3
  Replica Evaluation (mean of n = 5), difference of pore size score before/after application: −1.5
[2]
  effect of pore-shrinking (conclusion from Table 5): demonstrated the effect of pore-shrinking
[3]
  decrease of delta-TEWL value as compared to the control solution (conclusion from Table 6): significant decrease of delta-TEWL value
[3]; sample 1 weight %
  ΔTEWL: 6.9

## O=S(=O)(O)CCCNC(CO)(CO)CO [TAPS, N-tris(hydroxymethyl)methyl-3-aminopropane sulfonic acid, reference compound]
[1]; [4]
  Evaluation Parakeratosis (mean of 4 mice): 2.1
[1]; [5]
  Evaluation Visual (mean of 4 mice), skin roughness: 2.0
[1]
  effect of inhibiting parakeratosis (conclusion from Table 4): effect was not recognized
[3]; [7]
  ΔTEWL: 12.0

## CN(CC(=O)O)C(=O)CN [glycyl-sarcosine, glycyl sarcosine] (H-Gly-[Sar]-OH)
[1]; [4]
  Evaluation Parakeratosis (mean of 4 mice): 1.4
[1]; [5]
  Evaluation Visual (mean of 4 mice), skin roughness: 1.5
[1]
  effect of inhibiting parakeratosis (conclusion from Table 4): have the effect of inhibiting parakeratosis
[2]; [6]
  Replica Evaluation (mean of n = 5), difference of pore size score before/after application: −0.8
[2]
  effect of pore-shrinking (conclusion from Table 5): demonstrated the effect of pore-shrinking

## CC(=O)N[C@@H](CCC(=O)O)C(=O)O [N-acetyl-L-glutamic acid]
[1]
  effect of inhibiting parakeratosis (conclusion from Table 1): have the effect of inhibiting parakeratosis
[1]; [8]
  Evaluation Parakeratosis (mean of 4 mice): 1.2
[1]; [9]
  Evaluation Visual (mean of 4 mice), skin roughness: 1.2
[2]; [10]
  Replica Evaluation (mean of n = 5), difference of pore size score before/after application: −0.8
[2]
  pore-shrinking effect (conclusion from Table 2): pore-shrinking effect was observed

## O=C(O)CNC(CO)(CO)CO [tricine, reference compound]
[1]; Table 4, sample 2 weight % in aqueous 30 weight % ethanol, range 1.0 to 3.0
  Evaluation Parakeratosis (mean of 4 mice): 2.1
[1]; Table 4, sample 2 weight % in aqueous 30 weight % ethanol
  Evaluation Visual (mean of 4 mice), skin roughness: 2.0
[3]; sample 2 weight %
  ΔTEWL: 12.2

## CC(C(=O)O)N1CCOCC1 (stereo not shown) [methylmorpholino acetate, methylmorpholino acetic acid, reference compound]
[1]; [4]
  Evaluation Parakeratosis (mean of 4 mice): 2.0
[1]; [5]
  Evaluation Visual (mean of 4 mice), skin roughness: 1.9
[3]; [7]
  ΔTEWL: 10.8

## NC(=O)NCC(=O)O [hydantoic acid]
[1]; [4]
  Evaluation Parakeratosis (mean of 4 mice): 1.3
[1]; [5]
  Evaluation Visual (mean of 4 mice), skin roughness: 1.4
[1]
  effect of inhibiting parakeratosis (conclusion from Table 4): have the effect of inhibiting parakeratosis
[2]; [6]
  Replica Evaluation (mean of n = 5), difference of pore size score before/after application: −0.8
[2]
  effect of pore-shrinking (conclusion from Table 5): demonstrated the effect of pore-shrinking
[3]
  decrease of delta-TEWL value as compared to the control solution (conclusion from Table 6): significant decrease of delta-TEWL value
[3]; [7]
  ΔTEWL: 8.0

## CNCC(=O)O [sarcosine, N-methylglycine]
[1]
  effect of inhibiting parakeratosis (conclusion from Table 1): have the effect of inhibiting parakeratosis
[1]; [8]
  Evaluation Parakeratosis (mean of 4 mice): 1.2
[1]; [9]
  Evaluation Visual (mean of 4 mice), skin roughness: 1.3
[2]; [10]
  Replica Evaluation (mean of n = 5), difference of pore size score before/after application: −1.3
[2]
  pore-shrinking effect (conclusion from Table 2): pore-shrinking effect was observed

## NCCC(=O)O [beta-alanine]
[1]
  effect of inhibiting parakeratosis (conclusion from Table 1): have the effect of inhibiting parakeratosis
[1]; [8]
  Evaluation Parakeratosis (mean of 4 mice): 1.5
[1]; [9]
  Evaluation Visual (mean of 4 mice), skin roughness: 1.6
[2]; [10]
  Replica Evaluation (mean of n = 5), difference of pore size score before/after application: −0.9
[2]
  pore-shrinking effect (conclusion from Table 2): pore-shrinking effect was observed

## Cl.NCC(N)=O [glycine-amide HCL, glycine-amide hydrochloride, reference compound]
[1]; [4]
  Evaluation Parakeratosis (mean of 4 mice): 2.0
[1]; [5]
  Evaluation Visual (mean of 4 mice), skin roughness: 1.9
[1]
  effect of inhibiting parakeratosis (conclusion from Table 4): did not exhibit such effect
[3]; [7]
  ΔTEWL: 12.4

## CCOC(=O)CN1CCCCC1 [ethyl-1-piperidine acetate, reference compound]
[1]; [4]
  Evaluation Parakeratosis (mean of 4 mice): 1.9
[1]; [5]
  Evaluation Visual (mean of 4 mice), skin roughness: 1.8
[3]; [7]
  ΔTEWL: 10.7

## O=S(=O)(O)CCCCNC1CCCCC1 [CABS, 4-(cyclohexylamino)-1-butane sulfonic acid, reference compound]
[1]; [4]
  Evaluation Parakeratosis (mean of 4 mice): 2.0
[1]; [5]
  Evaluation Visual (mean of 4 mice), skin roughness: 1.9
[1]
  effect of inhibiting parakeratosis (conclusion from Table 4): effect was not recognized
[3]; [7]
  ΔTEWL: 11.9
